Test results from patent US20140011799A1 (Bristol-Myers Squibb Company, priority 2012, published 2014).

The molecules below were run against T1, Endothelial lipase (EL) (Homo sapiens, UniProt Q9Y5X9) (assay: Endothelial lipase (EL) enzymatic assay, fluorescent substrate A10070 in DMPG vesicles). Details: EL from conditioned media of HT-1080 cells; compound preincubated 30 min at 37° C; read-out: EL IC50.
T1 construct: HT-1080 cells that were transformed using RAGE technology (Athersys) to overexpress endogenous EL; endogenous in cells; conditioned medium used
T1 sequence (Q9Y5X9 21-500): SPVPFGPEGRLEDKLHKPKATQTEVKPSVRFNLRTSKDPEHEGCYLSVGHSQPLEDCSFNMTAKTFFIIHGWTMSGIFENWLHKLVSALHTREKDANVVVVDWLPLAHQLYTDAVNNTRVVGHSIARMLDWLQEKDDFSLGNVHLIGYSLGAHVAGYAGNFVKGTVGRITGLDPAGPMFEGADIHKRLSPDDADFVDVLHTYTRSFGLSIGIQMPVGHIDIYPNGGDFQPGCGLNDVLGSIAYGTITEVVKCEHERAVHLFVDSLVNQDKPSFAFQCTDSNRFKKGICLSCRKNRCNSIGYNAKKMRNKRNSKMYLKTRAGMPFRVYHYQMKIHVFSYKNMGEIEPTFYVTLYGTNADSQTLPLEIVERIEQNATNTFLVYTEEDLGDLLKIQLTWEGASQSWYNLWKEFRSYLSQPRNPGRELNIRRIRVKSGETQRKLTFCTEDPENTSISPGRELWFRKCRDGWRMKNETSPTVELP
Format: biochemical
Procedure, shortened: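 EL from conditioned medium of HT-1080 cells engineered to overexpress endogenous EL; HL partially purified from conditioned medium of HL-overexpressing COS cells. Enzyme preincubated with compound 30 min at 37° C in 50 mM HEPES pH 8.0, 50 mM NaCl, 1 mM CaCl2; DMPG vesicles carrying FRET substrate (0.11 mole fraction) then added.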

| SMILES | IC50 [nM] |
| --- | --- |
| CC1(Cc2nnc(C(c3nc4ccc(-c5ccnc(F)c5)cc4s3)S(=O)(=O)Cc3ccccc3)o2)NC(=O)NC1=O (single isomer, unassigned; isomer b) [Example 10, 5-((5-((benzylsulfonyl)(6-(2-fluoropyridin-4-yl)benzo[d]thiazol-2-yl)methyl)-1,3,4-oxadiazol-2-yl)methyl)-5-methylimidazolidine-2,4-dione (Isomer B)] | 19 |
| O=S(=O)(O)Cc1nnc(C(c2nc3ccc(-c4ccccc4)cc3s2)S(=O)(=O)Cc2ccc(F)cc2)o1 (centres unmarked) [Example 34, (5-(((4-fluorobenzyl)sulfonyl)(6-phenylbenzo [d]thiazol-2-yl)methyl)-1,3,4-oxadiazol-2-yl)methanesulfonic acid] | 131 |
| CC1(Cc2nnc(C(c3nc4ccc(-c5ccc(C(=O)N6CCOCC6)cc5)cc4s3)S(=O)(=O)Cc3ccccc3)o2)NC(=O)NC1=O (centres unmarked) [Example 5, 5-((5-((benzylsulfonyl)(6-(4-(morpholine-4-carbonyl)phenyl)benzo[d]thiazol-2-yl)methyl)-1,3,4-oxadiazol-2-yl)methyl)-5-methylimidazolidine-2,4-dione] | 30 |
| CC1(Cc2nnc(C(c3nc4ccc(-c5ccc(F)nc5)cc4s3)S(=O)(=O)Cc3ccccc3)o2)NC(=O)NC1=O (single isomer, unassigned; isomer a) [Example 6, 5-((5-((benzylsulfonyl)(6-(6-fluoropyridin-3-yl)benzo[d]thiazol-2-yl)methyl)-1,3,4-oxadiazol-2-yl)methyl)-5-methylimidazolidine-2,4-dione (Isomer A)] | 11 |
| CC(C)CS(=O)(=O)C(c1nnc(CNS(N)(=O)=O)o1)c1nc2ccc(-c3ccccc3)cc2s1 (centres unmarked) [Example 68, N-[(5-{6-phenyl-1,3-benzothiazol-2-yl[(2-methylpropyl)sulfonyl]methyl}-1,3,4-oxadiazol-2-yl)methyl]sulfuric diamide] | < 10 |
| CS(=O)(=O)C(c1nnc(C[C@@H]2NS(=O)(=O)NC2=O)o1)c1nc2ccc(-c3ccccc3)cc2s1 (stereo partly drawn) [Example 45, (4S)-4-((5-((Methylsulfonyl)(6-phenylbenzo[d]thiazol-2-yl)methyl)-1,3,4-oxadiazol-2-yl)methyl)-1,2,5-thiadiazolidin-3-one 1,1-dioxide] | < 10 |
| Cc1noc(C)c1-c1ccc2nc(C(c3nnc(CC4SC(=O)NC4=O)o3)S(C)(=O)=O)sc2c1 (centres unmarked) [Example 19, 5-((5-((6-(3,5-dimethylisoxazol-4-yl)benzo[d]thiazol-2-yl)(methylsulfonyl)methyl)-1,3,4-oxadiazol-2-yl)methyl) thiazolidine-2,4-dione] | < 10 |
| CC(C)C(=O)NCc1nnc(C(c2nc3ccc(-c4ccccc4)cc3s2)S(C)(=O)=O)o1 (centres unmarked) [Example 88, N-((5-((Methylsulfonyl)(6-phenylbenzo[d]thiazol-2-yl)methyl)-1,3,4-oxadiazol-2-yl)methyl)isobutyramide] | 195 |
| CC(c1nnc(CNS(N)(=O)=O)o1)(c1nc2ccc(-c3ccccc3)cc2s1)S(C)(=O)=O (single isomer, unassigned) [Reference 1, Isomer A, N-((5-(1-(Methylsulfonyl)-1-(6-phenyl-1,3-benzothiazol-2-yl)ethyl)-1,3,4-oxadiazol-2-yl)methyl)sulfamide, reference compound] | 3750 |
| CS(=O)(=O)C(c1nnc(CC2SC(=O)NC2=O)o1)c1nc2ccc(-c3ccc(F)nc3)cc2s1 (centres unmarked) [Example 3, 5-((5-((6-(6-fluoro-3-pyridinyl)-1,3-benzothiazol-2-yl)(methylsulfonyl)methyl)-1,3,4-oxadiazol-2-yl)methyl)-1,3-thiazolidine-2,4-dione] | < 10 |
| CC1(Cc2nnc(C(c3nc4ccc(-c5ccc(F)nc5)cc4s3)S(C)(=O)=O)o2)SC(=O)NC1=O (single isomer, unassigned; isomer a) [Example 17, 5-((5-((6-(6-fluoropyridin-3-yl)benzo[d]thiazol-2-yl)(methylsulfonyl)methyl)-1,3,4-oxadiazol-2-yl)methyl)-5-methylthiazolidine-2,4-dione (Isomer A)] | < 10 |
